Data taken from patent publication US12275733B2, “Substituted pyrido[3,4-b]indoles for the treatment of cartilage disorders” (Sanofi, priority 2016, dated 2025).
pEC50: −log10 of the molar value.

Columns and labels:
ATDC5 cells = assay: Chondrogenesis activity assay in ATDC5 cells (collagen type II induction, immunofluorescence); type: cell-based, mouse; conditions: Mus musculus; for pEC50: collagen type II induction in ATDC5 cells, concentration reaching 50% of maximum induction; for Emax: maximum percent induction of collagen type II relative to internal reference compound at 10 μM, ATDC5 cells
In short: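 Mouse ATDC5 cells in insulin (10 μg/ml)-containing DMEM/F12 differentiation medium with 5% FCS were exposed to compound, typically 40 nM–10 μM at 0.1% DMSO, for 4 days at 37 °C. Intracellular collagen type II was quantified by Alexa Fluor 488 immunostaining with high-content imaging, relative to DMSO and a 10 μM reference compound.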

[1] = system: primary human chondrocyte pellet cultures; assay: Chondrogenesis activity assay in primary human chondrocyte pellet cultures (proteoglycan (aggrecan) induction, Blyscan assay); type: cell-based; conditions: for pEC50: 336 h, proteoglycan (aggrecan) induction, primary human chondrocyte pellets, 2 weeks culture; for Emax: Homo sapiens, Chondrocyte, maximum percent proteoglycan (aggrecan) induction relative to the internal reference compound at 10 μM
Experimental: B) Chondrogenesis Activity Assay in Primary Human Chondrocyte Pellet Cultures
In this assay human articular chondrocytes are harvested by enzymatic digestion from articular cartilage and passaged several times to dedifferentiate the chondrocytes and to propagate the cells. Cells are cultured as cell pellets in the presence of the compounds of the invention over 2 weeks, and the chondrogenic differentiation is quantified by the production of the chondrogenic marker aggrecan (proteoglycan).
In detail, primary chondrocytes were harvested by enzymatic digestion from cartilage of osteoarthritis patients undergoing knee joint replacement surgery, and cultured in vitro. Cells were passaged one or two times and aliquots were cryopreserved. To initiate chondrogenesis experiments, cell aliquots were thawn, cultured in Chondrocyte Growth Medium (CGM, Lonza, #CC-3216) and passaged twice to further propagate and dedifferentiate cells. Pellet cultures were initiated by seeding 2.5×10E5 cells per well into a 96-well deep well plate in 600 μl chondrocyte differentiation medium consisting of Dulbecco's Modified Eagle Medium (DMEM, Invitrogen, #41966), 1×ITS-solution (Insulin/Transferrin/sodium selenite; 100× solution: Invitrogen, #51500056), 5 μg/mL linoleic acid (Sigma, #L1012-1G), 1× nonessential amino acids (100× solution: Invitrogen, #11140); 10 nM Dexamethasone, 2 ng/ml TGF-β1 (transforming growth factor β1) and 10 μg/ml ascorbic acid. Cells were spun to pellets by centrifugation (10 min, 400×g). Test compounds dissolved in DMSO were added to yield increasing compound concentrations, typically from 40 nM to 10 μM, and a final DMSO concentration of 0.1%, and the cell pellets cultured at 37° C., and 5% CO2 for 2 weeks. On each 96-well plate, control wells containing no test compound but the same concentration of DMSO, i.e. untreated cells, were included and used as reference for the determination of the effect of the test compounds on the cells, and wells containing an internal reference compound at a concentration of 10 μM were included and used as positive control and for standardizing the results. Chondrocyte differentiation medium and the compounds were exchanged twice weekly until harvest of the pellets.
For harvest of the pellets, medium was removed and the pellet was homogenized by enzymatic digestion. 100 μl of protease solution containing 0.4 mg/ml papain, 50 mM sodium phosphate, 4 mM EDTA and 0.48 mg/ml L-cysteine was added to the pellet in each well of a 96-well plate, the plate was sealed with a plate sealer foil (SILVERseal, Greiner Bio-One) and incubated for 4 to 6 hours at 65° C. with agitation.
The concentration of proteoglycan (aggrecan) was determined by quantification of the sulfated glycosaminoglycan side chains of aggrecan using the Blyscan assay (Kit from Biocolor). Aliquots of the papain-digest were transferred to 400 μl of Blyscan dye solution and incubated at room temperature for 45 min with agitation (1200 rpm). The mixture was centrifuged at 3760×g for 45 min, the supernatant was discarded, and the stained pellet was redissolved in 400 μl of Blyscan dissociation reagent by rotation until the precipitate completely resolved. Optical density was measured at 656 nm using a Tecan Saphire2 instrument, and the amount of proteoglycan determined against a standard curve with chondroitin-4-sulfate.
Induction of proteoglycan (aggrecan) was calculated for each compound concentration relative to the control (untreated cells, i.e. no test compound added), and an EC50 value (effective concentration 50 (in μM (micromollliter)), i.e. the compound concentration at which the effect of the compound on proteoglycan (aggrecan) induction reaches 50% of the maximum induction) was calculated using a sigmoidal signal fit procedure. […]

Row | pEC50 (ATDC5 cells) | Compound | Emax (ATDC5 cells) | pEC50 [1] | Emax [1]
1 | 6.48 | COc1ccc(-c2cc(Cl)cc3c2[nH]c2c(C)nccc23)cc1 [Example 149, 6-Chloro-8-(4-methoxy-phenyl)-1-methyl-9H-pyrido[3,4-b]indole] | > 80% | 5.96 | 100 to 200%
2 | < 5.00 | FC(F)(F)Cn1c2cnccc2c2cc(Cl)cc(-c3cnn(-c4c(Cl)cccc4Cl)c3)c21 [Example 167, 6-Chloro-8-[1-(2,6-dichloro-phenyl)-1H-pyrazol-4-yl]-9-(2,2,2-trifluoro-ethyl)-9H-pyrido[3,4-b]indole] | 20 to 50% | 4.89 | < 40%
3 | 5.72 | Cc1ncc(-c2cc(Cl)cc3c4ccncc4n(CC(F)(F)F)c23)s1 [Example 171, 6-Chloro-8-(2-methyl-thiazol-5-yl)-9-(2,2,2-trifluoro-ethyl)-9H-pyrido[3,4-b]indole] | > 80% | 5.40 | > 200%
4 | 5.52 | Cc1nccc2c1[nH]c1c(-c3ccc4c(c3)CCCO4)cc(Cl)cc12 [Example 184, 6-Chloro-8-chroman-6-yl-1-methyl-9H-pyrido[3,4-b]indole] | 50 to 80% | 5.72 | 40 to 100%
5 | 6.85 | Cc1nccc2c1[nH]c1c(-c3ccc(OCCn4ccnc4)cc3)cc(Cl)cc12 [Example 194, 6-Chloro-8-[4-(2-imidazol-1-yl-ethoxy)-phenyl]-1-methyl-9H-pyrido[3,4-b]indole] | > 80% | 6.08 | 100 to 200%
6 | < 5.00 | Cc1nccc2c1[nH]c1c(-c3ccc4c(c3)OC(C)(C)C4)cc(Cl)cc12 [Example 195, 6-Chloro-8-(2,2-dimethyl-2,3-dihydro-benzofuran-6-yl)-1-methyl-9H-pyrido[3,4-b]indole] | < 20% | 4.85 | < 40%
7 | < 5.00 | Cc1nccc2c1[nH]c1c(-c3c[nH]nc3Cc3ccccc3)cc(Cl)cc12 [Example 199, 8-(3-Benzyl-1H-pyrazol-4-yl)-6-chloro-1-methyl-9H-pyrido[3,4-b]indole] | < 20% | 4.66 | < 40%
8 | < 5.00 | COCc1cc(-c2cc(Cl)cc3c2[nH]c2c(C)nccc23)ccc1OC [Example 200, 6-Chloro-8-(4-methoxy-3-methoxymethyl-phenyl)-1-methyl-9H-pyrido[3,4-b]indole] | 20 to 50% | 5.36 | 100 to 200%
9 | < 5.00 | COc1ccc(-c2cc(Cl)cc3c2[nH]c2c(C)nccc23)cc1Cl [Example 206, 6-Chloro-8-(3-chloro-4-methoxy-phenyl)-1-methyl-9H-pyrido[3,4-b]indole] | 20 to 50% | 4.72 | < 40%
10 | 6.55 | CCn1c2c(-c3cnn(C)c3)cc(Br)cc2c2ccnc(C)c21 [Example 209, 6-Bromo-9-ethyl-1-methyl-8-(1-methyl-1H-pyrazol-4-yl)-9H-pyrido[3,4-b]indole] | > 80% | 5.59 | > 200%
11 | < 5.48 | CCc1cc2c([nH]c3c(-c4ccc(OCCn5cccn5)cc4)cc(Br)cc32)c(C)n1 [Example 212, 6-Bromo-3-ethyl-1-methyl-8-[4-(2-pyrazol-1-yl-ethoxy)-phenyl]-9H-pyrido[3,4-b]indole] | < 20% | 5.05 | < 40%
12 | < 5.96 | Cc1nccc2c1[nH]c1c(-c3ccnc(N4CCNCC4)c3)cc(Cl)cc12 [Example 213, 6-Chloro-1-methyl-8-(2-piperazin-1-yl-pyridin-4-yl)-9H-pyrido[3,4-b]indole] | < 20% | 5.92 | 100 to 200%
13 | < 5.48 | Cc1nccc2c1[nH]c1c(-c3ccnc(N4CCN(C)CC4)c3)cc(Cl)cc12 [Example 214, 6-Chloro-1-methyl-8-[2-(4-methyl-piperazin-1-yl)-pyridin-4-yl]-9H-pyrido[3,4-b]indole] | < 20% | 5.89 | 100 to 200%
14 | < 5.00 | CCc1cc2c3cc(Br)cc(-c4cnn(C)c4)c3n(CC)c2c(C)n1 [Example 216, 6-Bromo-3,9-diethyl-1-methyl-8-(1-methyl-1H-pyrazol-4-yl)-9H-pyrido[3,4-b]indole] | < 20% | 6.00 | > 200%
15 | < 5.48 | COc1ccc(-c2cc(Br)cc3c2[nH]c2c(C)nc(C)cc23)cc1 [Example 217, 6-Bromo-8-(4-methoxy-phenyl)-1,3-dimethyl-9H-pyrido[3,4-b]indole] | 20 to 50% | 5.31 | > 200%
16 | < 5.96 | COc1ccc(-c2cc(Cl)cc3c2[nH]c2c(C)nccc23)nc1N [Example 218, 6-(6-Chloro-1-methyl-9H-pyrido[3,4-b]indol-8-yl)-3-methoxy-pyridin-2-ylamine] | < 20% | 4.40 | < 40%
17 | < 5.48 | COc1cc(-c2cc(Cl)cc3c2[nH]c2c(C)nccc23)ccc1OCc1cccc(F)n1 [Example 223, 6-Chloro-8-[4-(6-fluoro-pyridin-2-ylmethoxy)-3-methoxy-phenyl]-1-methyl-9H-pyrido[3,4-b]indole] | 20 to 50% | 4.57 | < 40%
18 | 6.82 | Cc1nccc2c1[nH]c1c(-c3ccc(OCC4CCN(C)C4)cc3)cc(Cl)cc12 (centres unmarked) [Example 228, 6-Chloro-1-methyl-8-[4-(1-methyl-pyrrolidin-3-ylmethoxy)-phenyl]-9H-pyrido[3,4-b]indole] | 50 to 80% | 6.85 | 100 to 200%
19 | < 5.48 | Cc1nccc2c1[nH]c1c(-c3cccc(NC(=O)Nc4ccc(F)cc4F)c3)cc(Cl)cc12 [Example 230, 1-[3-(6-Chloro-1-methyl-9H-pyrido[3,4-b]indol-8-yl)-phenyl]-3-(2,4-difluoro-phenyl)-urea] | < 20% | 4.68 | < 40%
20 | < 5.48 | Cc1nccc2c1[nH]c1c(-c3ccc4c(c3)CC(C)(C)O4)cc(Cl)cc12 [Example 236, 6-Chloro-8-(2,2-dimethyl-2,3-dihydro-benzofuran-5-yl)-1-methyl-9H-pyrido[3,4-b]indole] | < 20% | 5.34 | > 200%
21 | < 5.96 | Cc1nccc2c1[nH]c1c(-c3ccc(CN)cc3)cc(Cl)cc12 [Example 241, 4-(6-Chloro-1-methyl-9H-pyrido[3,4-b]indol-8-yl)-benzylamine] | 20 to 50% | 5.82 | 100 to 200%
22 | 5.96 | CCn1c2c(-c3cnn(Cc4ccccn4)c3)cc(Cl)cc2c2ccnc(C)c21 [Example 244, 6-Chloro-9-ethyl-1-methyl-8-(1-pyridin-2-ylmethyl-1H-pyrazol-4-yl)-9H-pyrido[3,4-b]indole] | > 80% | 5.31 | > 200%
23 | < 5.96 | Cc1nccc2c1[nH]c1c(-c3ccnc(F)c3Br)cc(Cl)cc12 [Example 245, 8-(3-Bromo-2-fluoro-pyridin-4-yl)-6-chloro-1-methyl-9H-pyrido[3,4-b]indole] | < 20% | 5.00 | 40 to 100%
